From PubChem BioAssay (NCI)
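Method: 48-hour compound exposure of cells in 96-well plates, five concentrations, linear interpolation of endpoints. At the GI50, growth is halved. Definition used: TGI = concentration required for complete inhibition of growth.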

Key:
Assay in all cases: DTP human tumour cell line panel, 48 h
[1] = system: 786-0 renal
[2] = system: A498 renal
[3] = system: A549 NSCLC
[4] = system: ACHN renal
[5] = system: BT-549 breast
[6] = system: CAKI-1 renal
[7] = system: CCRF-CEM leukemia
[8] = system: COLO 205 colon
[9] = system: DU-145 prostate
[10] = system: EKVX NSCLC
[11] = system: HCC-2998 colon
[12] = system: HCT-116 colon
[13] = system: HCT-15 colon
[14] = system: HL-60(TB) leukemia
[15] = system: HOP-62 NSCLC
[16] = system: HOP-92 NSCLC
[17] = system: HS 578T breast
[18] = system: HT29 colon
[19] = system: IGROV1 ovarian
[20] = system: K-562 leukemia
[21] = system: KM12 colon
[22] = system: LOX IMVI melanoma
[23] = system: M14 melanoma
[24] = system: MALME-3M melanoma
[25] = system: MCF7 breast
[26] = system: MDA-MB-231 breast
[27] = system: MDA-MB-435
[28] = system: MOLT-4 leukemia
[29] = system: NCI-H226 lung
[30] = system: NCI-H23 lung
[31] = system: NCI-H460 lung
[32] = system: NCI-H522 lung
[33] = system: NCI/ADR-RES ovarian
[34] = system: OVCAR-3 ovarian
[35] = system: OVCAR-4 ovarian
[36] = system: OVCAR-5 ovarian
[37] = system: OVCAR-8 ovarian
[38] = system: PC-3 prostate
[39] = system: RPMI-8226 leukemia
[40] = system: RXF 393 renal
[41] = system: SF-268 CNS
[42] = system: SF-295 CNS
[43] = system: SF-539 CNS
[44] = system: SK-MEL-2 melanoma
[45] = system: SK-MEL-28 melanoma
[46] = system: SK-MEL-5 melanoma
[47] = system: SK-OV-3 ovarian
[48] = system: SN12C renal
[49] = system: SNB-19 CNS
[50] = system: SNB-75 CNS
[51] = system: SR leukemia
[52] = system: SW-620 colon
[53] = system: T-47D breast
[54] = system: TK-10 renal
[55] = system: U251 CNS
[56] = system: UACC-257 melanoma
[57] = system: UACC-62 melanoma
[58] = system: UO-31 renal

`N#Cc1c(-c2ccc(Cl)cc2)cc(-c2cc(O)ccc2O)nc1N` was tested, and the GI50 [1] was 2.06 µM, the TGI [1] was 6.49 µM and the GI50 [2] was 1.41 µM. The TGI [2] was 6.14 µM, the GI50 [3] was 2.33 µM and the TGI [3] was 13.8 µM. It also gave a GI50 [4] of 1.89 µM, a TGI [4] of 12.2 µM and a GI50 [5] of 3.41 µM. For the same compound, the TGI [5] was 31.2 µM, the GI50 [6] was 2.98 µM and the TGI [6] was 19.1 µM. The GI50 [7] was 1.23 µM, the TGI [7] was > 100 µM and the GI50 [8] was 22.4 µM. For the same compound, the TGI [8] was > 100 µM, the GI50 [9] was 1.25 µM and the TGI [9] was 10.5 µM. The GI50 [10] was 2.77 µM, the TGI [10] was > 62.9 µM and the GI50 [11] was 1.17 µM. For the same compound, the TGI [11] was 3.46 µM, the GI50 [12] was 0.553 µM and the TGI [12] was > 34 µM. For the same compound, the GI50 [13] was 4.74 µM, the TGI [13] was > 52.8 µM and the GI50 [14] was 7.64 µM. The TGI [14] was > 87.9 µM, the GI50 [15] was 0.908 µM and the TGI [15] was 3.5 µM. It also gave a GI50 [16] of 2.39 µM, a TGI [16] of 10.8 µM and a GI50 [17] of 1.73 µM. For the same compound, the TGI [17] was > 100 µM, the GI50 [18] was 11.7 µM and the TGI [18] was > 53.3 µM. The GI50 [19] was 1.24 µM, the TGI [19] was 4.77 µM and the GI50 [20] was 0.402 µM. For the same compound, the TGI [20] was > 100 µM, the GI50 [21] was 2 µM and the TGI [21] was 14.9 µM. The GI50 [22] was 0.558 µM, the TGI [22] was 1.89 µM and the GI50 [23] was 1.23 µM. It also gave a TGI [23] of 5.63 µM, a GI50 [24] of 1.54 µM and a TGI [24] of 4.27 µM. The GI50 [25] was 0.566 µM, the TGI [25] was > 32.8 µM and the GI50 [26] was 1.25 µM. It also gave a TGI [26] of 5.09 µM, a GI50 [27] of 0.686 µM and a TGI [27] of 2.74 µM. For the same compound, the GI50 [28] was 0.666 µM, the TGI [28] was 5.02 µM and the GI50 [29] was 2.54 µM. The TGI [29] was 9.87 µM, the GI50 [30] was 1.22 µM and the TGI [30] was 5.28 µM. For the same compound, the GI50 [31] was 0.935 µM, the TGI [31] was 4.87 µM and the GI50 [32] was 0.606 µM. The TGI [32] was 2.72 µM, the GI50 [33] was 8.8 µM and the TGI [33] was > 100 µM. It also gave a GI50 [34] of 0.472 µM, a TGI [34] of 1.51 µM and a GI50 [35] of 0.576 µM. For the same compound, the TGI [35] was 2.2 µM, the GI50 [36] was 5.07 µM and the TGI [36] was 25.7 µM. The GI50 [37] was 1.37 µM, the TGI [37] was 4.93 µM and the GI50 [38] was 1.48 µM. For the same compound, the TGI [38] was > 33.9 µM, the GI50 [39] was 3.2 µM and the TGI [39] was > 100 µM. The GI50 [40] was 0.835 µM, the TGI [40] was 2.72 µM and the GI50 [41] was 0.825 µM. For the same compound, the TGI [41] was 7.15 µM, the GI50 [42] was 2.94 µM and the TGI [42] was 9.77 µM. For the same compound, the GI50 [43] was 0.981 µM, the TGI [43] was 3.29 µM and the GI50 [44] was 2.6 µM. The TGI [44] was 9.16 µM, the GI50 [45] was 1.76 µM and the TGI [45] was 4.23 µM. It also gave a GI50 [46] of 0.853 µM, a TGI [46] of 2.4 µM and a GI50 [47] of 2.42 µM. It also gave a TGI [47] of 6.34 µM, a GI50 [48] of 1.17 µM and a TGI [48] of 5.63 µM. For the same compound, the GI50 [49] was 1.29 µM, the TGI [49] was > 45.3 µM and the GI50 [50] was 0.914 µM. For the same compound, the TGI [50] was 4.04 µM, the GI50 [51] was 0.605 µM and the TGI [51] was > 100 µM. It also gave a GI50 [52] of 0.773 µM, a TGI [52] of 4.68 µM and a GI50 [53] of 0.854 µM. For the same compound, the TGI [53] was 5.64 µM, the GI50 [54] was 4.08 µM and the TGI [54] was 32.8 µM. The GI50 [55] was 0.669 µM, the TGI [55] was 2.41 µM and the GI50 [56] was 1.83 µM. For the same compound, the TGI [56] was 7.44 µM, the GI50 [57] was 1.45 µM and the TGI [57] was 3.99 µM. For the same compound, the GI50 [58] was 5.12 µM and the TGI [58] was 23.6 µM.
